For orientation: AUC(0-t) means the area under the concentration-time curve up to a stated or last time point. Broadly, the Cmax is the peak of the concentration-time curve. By Tmax is commonly meant the time at which the peak concentration occurs. The pKa is the pH at which an ionisable group is half protonated.

The values below come from publication PMC3877285, “A New Strategy for Enhancing the Oral Bioavailability of Drugs with Poor Water-Solubility and Low Liposolubility Based on Phospholipid Complex and Supersaturated SEDDS” (PLoS ONE, 2013).

One data set is described as follows: In vitro lipolysis study. The format is in vitro ADME. As to conditions: lipolysis medium pH 6.5, pancreatic lipase, 37°C, 20 mg scutellarin equivalent, n = 3. As for the experimental part:
In vitro lipolysis studies were performed as previously described, [22] with minor modifications. Briefly, lipolysis medium was prepared in advance, containing 5 mM bile salt, 2 mM trizma maleate buffer, 1.25 mM phosphatidyl choline, and 150 mM sodium chloride, and was adjusted to pH 6.5 with 0.1 M NaOH. Then according to the single-dosage of commercial oral solution detailed as 70 mg scutellarin administrated into 900 mL GI medium, scutellarin powder, SPC, conventional SEDDS and super-SEDDS with a dose of 20 mg (equivalent to scutellarin) were dispersed in 250 mL warmed lipolysis medium (37°C), with a stirring rate of 100 rpm. After that, lipolysis was initiated by adding 50 mL freshly prepared pancreatic lipase solution (2000 TBU/mL, pH 6.5, 37°C), then controlled by constantly pumping 0.15 M CaCl2 with a rate of 0.25 mL/min. Over the lipolysis period, pH value was maintained at 6.5 by a pH-stat device (902 Titrando, Metrohm, Switzerland). At pre-determined time intervals (5, 10, 20, 30, 45, 60, 90, 120 min), 5 mL digested medium was taken and filtered by 0.45 µm polypropylene membrane. The filtered samples were immediately diluted 10 times with acetonitrile to stop lipolysis and induce protein precipitation. At last, the diluted samples were centrifuged at 10,000 rpm for 10 min (Centrifuge 5810R, Eppendorf, Germany), and subsequently analyzed by HPLC (as mentioned later).

Data set [1] in a line: In vivo pharmacokinetics after oral dosing. As to conditions: male, Sprague-Dawley, rat, plasma, 40 mg/kg equivalent to scutellarin, SD rats, n = 5, mean ± SD. The method, then: 20 male SD rats (300∼350 g) were fasted but allowed free access to water for 12 h, then divided randomly into 4 groups for the pharmacokinetics experiments of scutellarin powder, SPC, conventional SEDDS and Super-SEDDS. In order to avoid failure detection of plasma drug, the various formulations were orally administrated to rats at a dose of 40 mg/kg, according to the highest dosage of commercial oral solution, with a ceiling volume of 10 mL/kg when dispersed by purified water. The blood samples of 0.5 mL were collected in a 1.5 mL heparin treated EP tube from the orbital venous prior to the dose and at 0.5, 1, 2, 3, 4, 5, 6, 8, 10, 12, 24 and 36 h after the dose. The plasma was immediately isolated from whole blood by centrifugation (4000 rpm, 10 min) at room temperature and then stored in a −80°C freezer until analysis.
An HPLC analysis system (HP 1100 series, Agilent Technologies, Wilmington, Germany) of a quaternary pump, an autosampler and a UV detector with an ODS-C18 column (250 mm×4.6 mm i.d., Sepax Technologies Inc., Delaware, USA), was used for the determination of scutellarin. The mobile phase was a mixture of methanol, acetonitrile and 50 mM KH2PO4, at a ratio of 22∶15:63 (v/v/v), with pH of 2.5 adjusted by phosphoric acid. The detection was carried out at a wavelength of 335 nm, with a flow rate of 1.0 mL/min at room temperature.
200 µL of thawed plasma was removed to a 10 mL EP tube. 50 µL of internal standard working solution (20 µg/mL of rutin in methanol) was added and subsequently acidified by 100 µL of phosphoric acid (10 wt %) for 10 min. Then, 3 mL of ethyl acetate was infused for extracting scutellarin from plasma. After 30 min vortex, samples were centrifuged at 4000 rpm for 10 min, and the isolated supernatant was concentrated under nitrogen gas flow in bath of 40°C. Before HPLC detection, it needed to be re-dissolved by 100 µL of HPLC mobile phase and centrifuged at 10,000 rpm for 5 min. The whole analytical methodology including plasma treatment and HPLC detection was validated by accuracy and precision (see Table 2) as previously described.
The plasma data was analyzed in batches by DAS 2.0 (Mathematical Pharmacology Professional Committee of China, Shanghai, China). Peak plasma concentration (Cmax) and the time to reach Cmax (Tmax) were based on measured values. Area under the curve (AUC0-t) was calculated via a trapezoidal area method. […] All values were expressed as the mean ± standard deviation. The significant differences between each group were determined by one way analysis of variance (ANOVA) using the statistical package for social sciences software (SPSS® version 17.0, SPSS Inc., Shanghai, China), with the significance defined as p<0.05 and high significance as p<0.001.

On the set-up of data set [2]: method as in PMID 16269273. As to conditions: cited from earlier work.
The nature of data set [3]: Ex vivo intestinal absorption, everted intestinal sac. In kind it is in vitro ADME, Sprague-Dawley (SD) rats. As to conditions: everted rat jejunum sac, 50 µg/mL scutellarin. The method, then:
An everted intestinal sac experiment, modified according to the method previously described, was adopted to evaluate the ex vivo intestinal absorption of scutellarin. Kreb-Ringer’s (K–R) solution, containing 342.0 mM NaCl, 6.7 mM KCl, 5.9 mM CaCl2·2H2O, 5.3 mM MgCl2, 59.5 mM NaHCO3, 2.1 mM NaH2PO4 and 5.5 mM glucose, was prepared in advance. Half was cooled in 4°C refrigerator and the rest was warmed in a 37°C water bath. Scutellarin powder, SPC, conventional SEDDS and Super-SEDDS were dispersed in warmed K–R solution with a concentration of 50 µg/mL scutellarin, approximate to the lowest released concentration of drug during the lipolysis test. Male Sprague-Dawley (SD) rats were fasted overnight and then anesthetized with an intraperitoneal injection of chloral hydrated (10%, w/v) at a dose of 0.4 mL per 100 g. After dissection of the abdominal wall, the jejunum (21 cm from the pylorus) was carefully isolated without any mesentery, clipped into segments of 10 cm, and quickly rinsed in cooled K–R solution. […] After the tests, the length and width of the intestinal segments were measured for the calculation of uptake amount per unit area.

Where “and” joins values, the source holds several entries; their conditions need not be identical. Equal values may be shown once.

Consider `O=C(O)[C@H]1O[C@@H](Oc2cc3oc(-c4ccc(O)cc4)cc(=O)c3c(O)c2O)[C@H](O)[C@@H](O)[C@@H]1O` [Scutellarin powder, Scutellarin], for which the cumulative dissolution percentage in “In vitro lipolysis study” was 70% and 70.1±3.2%. For the same compound, in data set [1], the AUC(0-t) was found to be 2670 ± 404 ng·h/mL, the Cmax is 178 ± 35 ng/mL and the Tmax was determined as 5.2 ± 0.8 h. Further, in data set [1] (read-out: T1/2z (converted)), the half-life was 34.8 ± 22.8 h. Further, the pKa in data set [2] is given as 3.29. For the same compound, the “intestinal absorption (cumulative)” value in data set [3] came out at 0.04 µg/cm^2.
